This note sets out measurements from paper PMC3914206.

Common to all, as to type: binding
What all share (set-up): KINOMEscan: ABL1(F317L)-phosphorylated / KINOMEscan: ABL1(H396P)-nonphosphorylated / KINOMEscan: ABL1(H396P)-phosphorylated / KINOMEscan: ABL1(M351T)-phosphorylated / KINOMEscan: ABL1(T315I)-phosphorylated / KINOMEscan: ABL1-nonphosphorylated / KINOMEscan: ABL1-phosphorylated / KINOMEscan: ACVR2A / KINOMEscan: ACVR2B / KINOMEscan: ADCK3 / KINOMEscan: ADCK4 / KINOMEscan: AKT1 / KINOMEscan: AKT3 / KINOMEscan: ALK / KINOMEscan: ARK5 / KINOMEscan: AURKA / KINOMEscan: AURKC / KINOMEscan: BIKE / KINOMEscan: BMPR1A / KINOMEscan: BMPR1B / KINOMEscan: BMX / KINOMEscan: BRK / KINOMEscan: BRSK1 / KINOMEscan: BRSK2 / KINOMEscan: CAMK1 / KINOMEscan: CAMK1D / KINOMEscan: CAMK1G / KINOMEscan: CAMK2A / KINOMEscan: CAMK2B / KINOMEscan: AAK1 / KINOMEscan: CAMK2D / KINOMEscan: CAMK2G / KINOMEscan: ABL1(F317I)-nonphosphorylated / KINOMEscan: ABL1(F317I)-phosphorylated / KINOMEscan: ABL1(F317L)-nonphosphorylated: unit: % Ctrl

Assay [1] addresses T1, panel of 442 kinases (Homo sapiens, UniProt P0C264).
T1 construct: purchased KINOMEscan
T1 sequence (P0C264 1-359): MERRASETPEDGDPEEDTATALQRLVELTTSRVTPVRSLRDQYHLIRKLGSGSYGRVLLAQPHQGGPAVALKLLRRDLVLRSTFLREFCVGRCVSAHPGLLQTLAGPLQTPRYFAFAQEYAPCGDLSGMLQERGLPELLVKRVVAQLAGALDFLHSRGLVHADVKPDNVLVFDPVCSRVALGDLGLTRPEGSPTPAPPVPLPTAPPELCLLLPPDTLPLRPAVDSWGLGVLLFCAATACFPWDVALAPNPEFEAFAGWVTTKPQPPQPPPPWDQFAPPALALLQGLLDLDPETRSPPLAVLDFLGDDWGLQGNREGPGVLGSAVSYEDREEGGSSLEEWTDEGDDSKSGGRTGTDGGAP
The note with it: kinase SgK110; compound concentration 10 µM. The source says:
(§1) We assessed the selectivity of members of this scaffold using the KINOMEscan methodology across a near comprehensive panel of 442 kinases [[18,27]].

The target in assay [2] is T2, panel of 442 kinases (Homo sapiens, UniProt P00519, H396P).
T2 construct: purchased KINOMEscan
The note with it: Compound Concentration 10 µM.
Source text: as §1

In assay [3] the target is T3, panel of 442 kinases (Homo sapiens, UniProt Q13523).
T3 construct: purchased KINOMEscan
T3 sequence (Q13523 whole entry): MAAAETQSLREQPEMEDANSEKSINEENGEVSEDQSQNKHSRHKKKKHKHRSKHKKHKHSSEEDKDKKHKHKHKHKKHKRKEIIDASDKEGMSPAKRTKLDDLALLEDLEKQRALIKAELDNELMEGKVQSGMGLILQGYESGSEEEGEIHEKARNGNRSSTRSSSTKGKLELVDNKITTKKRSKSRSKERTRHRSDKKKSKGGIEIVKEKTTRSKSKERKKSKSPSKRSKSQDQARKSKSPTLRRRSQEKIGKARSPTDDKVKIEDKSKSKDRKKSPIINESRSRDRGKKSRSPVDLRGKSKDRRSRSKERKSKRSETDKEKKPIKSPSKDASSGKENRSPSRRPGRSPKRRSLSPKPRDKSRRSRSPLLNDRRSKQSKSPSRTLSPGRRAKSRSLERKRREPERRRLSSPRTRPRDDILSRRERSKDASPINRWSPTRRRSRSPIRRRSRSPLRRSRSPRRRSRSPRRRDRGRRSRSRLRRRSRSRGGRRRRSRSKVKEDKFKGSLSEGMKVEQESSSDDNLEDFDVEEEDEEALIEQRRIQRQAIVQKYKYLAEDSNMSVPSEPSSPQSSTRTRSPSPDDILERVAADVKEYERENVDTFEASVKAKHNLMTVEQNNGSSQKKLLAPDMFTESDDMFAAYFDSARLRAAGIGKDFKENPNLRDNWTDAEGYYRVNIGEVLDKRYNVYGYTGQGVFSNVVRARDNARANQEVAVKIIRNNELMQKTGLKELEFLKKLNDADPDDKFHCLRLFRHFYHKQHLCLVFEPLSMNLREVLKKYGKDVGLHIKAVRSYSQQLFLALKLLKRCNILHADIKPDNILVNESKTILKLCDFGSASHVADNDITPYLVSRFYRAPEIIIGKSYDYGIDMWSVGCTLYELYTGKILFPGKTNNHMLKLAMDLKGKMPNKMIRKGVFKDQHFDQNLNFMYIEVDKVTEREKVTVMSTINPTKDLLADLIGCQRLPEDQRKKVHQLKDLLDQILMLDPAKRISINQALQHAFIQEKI
The note with it: Compound Concentration 10 µM.
Source text: as §1

Regarding `COc1cc(C(=O)N2CCC(N3CCN(C)CC3)CC2)ccc1Nc1ncc2c(n1)N(C1CCCC1)c1ccccc1C(=O)N2C` [Compound 25, 11-cyclopentyl-2-((2-methoxy-4-(4-(4-methylpiperazin-1-yl)piperidine-1-carbonyl)phenyl)amino)-5-methyl-5H-benzo[e]pyrimido[5,4-b][1,4]diazepin-6(11H)-one], the “% Ctrl, SgK110” value at panel of 442 kinases [1] is reported as 43 % Ctrl. At panel of 442 kinases [2], the “KINOMEscan: ABL1(H396P)-nonphosphorylated” value came to 47 and the “KINOMEscan: ABL1(H396P)-phosphorylated” value is listed as 100. The “KINOMEscan: PRP4” value at panel of 442 kinases [3] is 95.

For `COc1cc(C(=O)N2CCC(N3CCN(C)CC3)CC2)ccc1Nc1ncc2c(n1)N1CCc3cccc(c31)C(=O)N2C` [Compound 24], on panel of 442 kinases [2], the “KINOMEscan: ABL1(H396P)-nonphosphorylated” value is listed as 34 and the “KINOMEscan: ABL1(H396P)-phosphorylated” value stood at 100.

Turning to `COc1cc(C(=O)N2CCC(N3CCN(C)CC3)CC2)ccc1Nc1ncc2c(n1)N(C)c1ccccc1C(=O)N2C` [15 (LRRK2-IN-1)], the “% Ctrl, SgK110” value at panel of 442 kinases [1] was 62 % Ctrl. At panel of 442 kinases [2], the “KINOMEscan: ABL1(H396P)-nonphosphorylated” value worked out at 100 and the “KINOMEscan: ABL1(H396P)-phosphorylated” value is 100. Further, the “KINOMEscan: PRP4” value at panel of 442 kinases [3] was 93.

On to `CCOc1cc(C(=O)N2CCC(N3CCN(C)CC3)CC2)ccc1Nc1ncc2c(n1)N(C1CCCC1)c1ccccc1C(=O)N2C` [Compound 26], for which the “% Ctrl, SgK110” value at panel of 442 kinases [1] amounted to 81 % Ctrl. For the same molecule, on panel of 442 kinases [2], the “KINOMEscan: ABL1(H396P)-nonphosphorylated” value was 86 and the “KINOMEscan: ABL1(H396P)-phosphorylated” value is given as 100. Moreover, the “KINOMEscan: PRP4” value at panel of 442 kinases [3] was found to be 100.
